Results: patent US8591892B2, “FTY720 increases CD74 expression and sensitizes cancer cells to anti-CD74 antibody-mediated cell death” (The Ohio State University, priority 2011, dated 2013)

Columns and labels:
Test in all cases: Flow cytometry of CD74, HLA-DR, CEACAM5 with directly labeled MAbs, with and without IFN-γ
Type in all cases: cell-based
BxPC-3 = tested on: BxPC-3
Method: (§1) Expression of CD74, HLA-DR, and carcinoembryonic antigen (CEACAM5) was determined in untreated cells and cells exposed to 200 U of IFN-γ for 48 h by flow cytometry. Cells were stained with directly labeled MAbs in comparison to a directly labeled human IgG control. Antibodies were labeled using ALEXA FLUOR® 488 (Invitrogen, Carlsbad, Calif.). For determination of cytoplasmic antigen expression, cells were permeabilized prior to staining using the BD CYTOFIX/CYTOPERM™ kit (BD Biosciences, San Jose, Calif.).

CAG = tested on: CAG
Method: as §1

Capan-1 = tested on: Capan-1
Method: as §1

FSCCL = tested on: FSCCL
Method: as §1

HT29 = tested on: HT29
Method: as §1

KMS11 = tested on: KMS11
Method: as §1

LS174T = tested on: LS174T
Method: as §1

Lovo = tested on: Lovo
Method: as §1

Panc-1 = tested on: Panc-1
Method: as §1

RL = tested on: RL
Method: as §1

TU118 = tested on: TU118
Method: as §1

U118 = tested on: U118
Method: as §1

U87 = tested on: U87
Method: as §1

## milatuzumab: fully humanized monoclonal antibody specific for CD74
BxPC-3; BxPC-3
  % change of cell surface expression with IFNγ: 142.2%
  % change of cytoplasmic expression with IFNγ: 1763.5%
BxPC-3; BxPC-3 + IFNγ 200 U, 48 h
  Cell surface expression (staining with directly labeled MAb): 6.2
BxPC-3; BxPC-3, without IFN-γ
  Cell surface expression (staining with directly labeled MAb): 2.6
CAG; CAG
  % change of cell surface expression with IFNγ: −5.4%
  % change of cytoplasmic expression with IFNγ: 19.8%
CAG; CAG + IFNγ 200 U, 48 h
  Cell surface expression (staining with directly labeled MAb): 39.2
CAG; CAG, without IFN-γ
  Cell surface expression (staining with directly labeled MAb): 41.5
Capan-1; Capan + IFNγ 200 U, 48 h
  Cell surface expression (staining with directly labeled MAb): 11.1
Capan-1; Capan-1
  % change of cell surface expression with IFNγ: 152.4%
  % change of cytoplasmic expression with IFNγ: 561.2%
Capan-1; Capan-1, without IFN-γ
  Cell surface expression (staining with directly labeled MAb): 4.4
FSCCL; FSCCL
  % change of cell surface expression with IFNγ: 32.8%
  % change of cytoplasmic expression with IFNγ: 58.5%
FSCCL; FSCCL + IFNγ 200 U, 48 h
  Cell surface expression (staining with directly labeled MAb): 19.0
FSCCL; FSCCL, without IFN-γ
  Cell surface expression (staining with directly labeled MAb): 14.3
HT29; HT29
  % change of cell surface expression with IFNγ: 141.1%
  % change of cytoplasmic expression with IFNγ: 1766.6%
HT29; HT29 + IFNγ 200 U, 48 h
  Cell surface expression (staining with directly labeled MAb): 8.3
HT29; HT29, without IFN-γ
  Cell surface expression (staining with directly labeled MAb): 3.4
KMS11; KMS11
  % change of cell surface expression with IFNγ: 14.0%
  % change of cytoplasmic expression with IFNγ: −1.9%
KMS11; KMS11 + IFNγ 200 U, 48 h
  Cell surface expression (staining with directly labeled MAb): 5.1
KMS11; KMS11, without IFN-γ
  Cell surface expression (staining with directly labeled MAb): 4.4
LS174T; LS174T
  % change of cell surface expression with IFNγ: −11.3%
  % change of cytoplasmic expression with IFNγ: 112.7%
LS174T; LS174T + IFNγ 200 U, 48 h
  Cell surface expression (staining with directly labeled MAb): 5.2
LS174T; LS174T, without IFN-γ
  Cell surface expression (staining with directly labeled MAb): 5.9
Lovo; Lovo
  % change of cell surface expression with IFNγ: 173.7%
  % change of cytoplasmic expression with IFNγ: 756.0%
Lovo; Lovo + IFNγ 200 U, 48 h
  Cell surface expression (staining with directly labeled MAb): 9.2
Lovo; Lovo, without IFN-γ
  Cell surface expression (staining with directly labeled MAb): 3.4
Panc-1; Panc-1
  % change of cell surface expression with IFNγ: 9.4%
  % change of cytoplasmic expression with IFNγ: 208.7%
Panc-1; Panc-1 + IFNγ 200 U, 48 h
  Cell surface expression (staining with directly labeled MAb): 4.9
Panc-1; Panc-1, without IFN-γ
  Cell surface expression (staining with directly labeled MAb): 4.5
RL; RL
  % change of cell surface expression with IFNγ: 23.8%
  % change of cytoplasmic expression with IFNγ: 3.7%
RL; RL + IFNγ 200 U, 48 h
  Cell surface expression (staining with directly labeled MAb): 25.0
RL; RL, without IFN-γ
  Cell surface expression (staining with directly labeled MAb): 20.2
TU118; TU118
  % change of cell surface expression with IFNγ: 167.8%
  % change of cytoplasmic expression with IFNγ: 374.6%
TU118; TU118 + IFNγ 200 U, 48 h
  Cell surface expression (staining with directly labeled MAb): 19.2
TU118; TU118, without IFN-γ
  Cell surface expression (staining with directly labeled MAb): 7.17
U118; U118
  % change of cell surface expression with IFNγ: 160.9%
  % change of cytoplasmic expression with IFNγ: 428.2%
U118; U118 + IFNγ 200 U, 48 h
  Cell surface expression (staining with directly labeled MAb): 18.3
U118; U118, without IFN-γ
  Cell surface expression (staining with directly labeled MAb): 7.0
U87; U87
  % change of cell surface expression with IFNγ: 75.6%
  % change of cytoplasmic expression with IFNγ: 158.8%
U87; U87 + IFNγ 200 U, 48 h
  Cell surface expression (staining with directly labeled MAb): 9.5
U87; U87, without IFN-γ
  Cell surface expression (staining with directly labeled MAb): 5.4
